The record followed here is ChEMBL document CHEMBL1130903, “Preparation of difluoro analogs of CCGs and their pharmacological evaluations” (Bioorg Med Chem Lett, 1998).

For assay [1], the target named is T1, Glutamate NMDA receptor (Rattus norvegicus) (UniProt P35439+Q00959+Q00960+Q00961+Q62645+Q8VHN2+Q9R1M7). The experiment in a line: Depolarizing activity against NMDA receptor in isolated spinal cord of newborn rat. It counts as protein-complex assay.
In assay [2] the target is T1, Glutamate NMDA receptor (Rattus norvegicus). The experiment in a line: (§1) Relative activity in depolarization to its corresponding CCG(CCG=1) isomer. It counts as protein-complex assay.
For assay [3], the target named is Metabotropic glutamate receptor 1 (Rattus norvegicus) (UniProt P23385). The description is as §1.
The target is the same in assay [4]. The experiment in a line: Depolarizing activity against mGluR-I receptor in isolated spinal cord of newborn rat. It counts as tissue-based.

Metabotropic glutamate receptor 1 (Rattus norvegicus), sequence (P23385 19-1199 limits assumed): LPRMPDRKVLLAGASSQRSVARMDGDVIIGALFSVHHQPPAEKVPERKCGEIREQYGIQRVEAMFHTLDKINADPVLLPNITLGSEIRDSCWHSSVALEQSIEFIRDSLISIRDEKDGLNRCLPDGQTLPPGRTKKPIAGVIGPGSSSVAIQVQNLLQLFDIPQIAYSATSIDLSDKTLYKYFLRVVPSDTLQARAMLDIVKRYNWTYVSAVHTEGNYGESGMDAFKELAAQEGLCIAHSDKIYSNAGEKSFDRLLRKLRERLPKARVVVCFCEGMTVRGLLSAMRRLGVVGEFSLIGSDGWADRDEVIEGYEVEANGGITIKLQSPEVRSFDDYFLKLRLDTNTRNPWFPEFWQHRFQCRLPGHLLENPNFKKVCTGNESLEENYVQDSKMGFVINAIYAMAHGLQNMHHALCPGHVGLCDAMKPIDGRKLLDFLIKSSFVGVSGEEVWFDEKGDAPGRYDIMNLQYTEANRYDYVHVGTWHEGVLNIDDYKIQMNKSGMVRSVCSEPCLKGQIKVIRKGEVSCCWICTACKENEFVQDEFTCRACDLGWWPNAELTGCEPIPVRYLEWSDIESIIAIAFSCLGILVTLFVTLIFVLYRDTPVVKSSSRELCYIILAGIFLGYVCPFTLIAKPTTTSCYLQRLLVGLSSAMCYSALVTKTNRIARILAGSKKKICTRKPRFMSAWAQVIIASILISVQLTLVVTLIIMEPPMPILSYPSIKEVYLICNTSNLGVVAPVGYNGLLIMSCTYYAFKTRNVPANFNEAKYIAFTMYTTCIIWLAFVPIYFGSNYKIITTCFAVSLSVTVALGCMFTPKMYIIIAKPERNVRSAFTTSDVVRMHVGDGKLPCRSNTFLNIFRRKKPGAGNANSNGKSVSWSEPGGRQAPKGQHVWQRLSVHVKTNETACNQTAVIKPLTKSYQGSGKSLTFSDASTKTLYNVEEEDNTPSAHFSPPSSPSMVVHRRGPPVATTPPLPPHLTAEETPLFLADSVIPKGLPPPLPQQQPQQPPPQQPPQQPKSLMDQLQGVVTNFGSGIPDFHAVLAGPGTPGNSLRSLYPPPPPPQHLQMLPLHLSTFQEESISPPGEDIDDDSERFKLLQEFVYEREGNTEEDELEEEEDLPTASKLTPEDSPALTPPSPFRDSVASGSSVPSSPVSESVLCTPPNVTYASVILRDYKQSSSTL

Take `N[C@H](C(=O)O)[C@H]1[C@@H](C(=O)O)C1(F)F`: the Threshold concentration in assay [1] turned out to be 1 µM. Moreover, in assay [2], the Ratio of depolarizing activity amounted to 1.5.

For `N[C@@H](C(=O)O)[C@H]1[C@H](C(=O)O)C1(F)F`, in assay [1], the Threshold concentration is 30 µM. The Ratio of depolarizing activity in assay [2] came out at 1.2.

Regarding `N[C@H](C(=O)O)[C@@H]1[C@@H](C(=O)O)C1(F)F`, the Ratio of depolarizing activity in assay [3] is 3. For the same compound, the Threshold concentration in assay [4] worked out at 2 µM.

As for `N[C@H](C(=O)O)[C@H]1[C@H](C(=O)O)C1(F)F`, the Threshold concentration in assay [1] and in assay [4] was 300 µM in each case. Moreover, the Ratio of depolarizing activity in assay [3] stood at 0.5.

For `NC(C(=O)O)[C@@H]1[C@H](C(=O)O)C1(F)F` (single isomer, unassigned), in assay [1], the Threshold concentration came to 1000 µM. The Ratio of depolarizing activity in assay [2] was under 0.1.

`NC(C(=O)O)[C@H]1[C@@H](C(=O)O)C1(F)F` (single isomer, unassigned) displayed a Threshold concentration in assay [1] of 1000 µM. Also, the Ratio of depolarizing activity in assay [2] was under 0.01.

In the case of `N[C@@H](C(=O)O)[C@@H]1[C@@H](C(=O)O)C1(F)F`, the Threshold concentration in assay [1] amounted to 10 µM. Moreover, the Ratio of depolarizing activity in assay [2] was 0.1.

In assay [1], `N[C@H](C(=O)O)[C@@H]1[C@H](C(=O)O)C1(F)F` registered a Threshold concentration of 100 µM. Besides, the Ratio of depolarizing activity in assay [2] came out at 2.
